Source: paper PMC9757750 (Science Advances, 2022)

Target: LegA15 (Legionella pneumophila, UniProt Q5ZSR1)
Assay: biochemical

LegA15, sequence (Q5ZSR1 1-471): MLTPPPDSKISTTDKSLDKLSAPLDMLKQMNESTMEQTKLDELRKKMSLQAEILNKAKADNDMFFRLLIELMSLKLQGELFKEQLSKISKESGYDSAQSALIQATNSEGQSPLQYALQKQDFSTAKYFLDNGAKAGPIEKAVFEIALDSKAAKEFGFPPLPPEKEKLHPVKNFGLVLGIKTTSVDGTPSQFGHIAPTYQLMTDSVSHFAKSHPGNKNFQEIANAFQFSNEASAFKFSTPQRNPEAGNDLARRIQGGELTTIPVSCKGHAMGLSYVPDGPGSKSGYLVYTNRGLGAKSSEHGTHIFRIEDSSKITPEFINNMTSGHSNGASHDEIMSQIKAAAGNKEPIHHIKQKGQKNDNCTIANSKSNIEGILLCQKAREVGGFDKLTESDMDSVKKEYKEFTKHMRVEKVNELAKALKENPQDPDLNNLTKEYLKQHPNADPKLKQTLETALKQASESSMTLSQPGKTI

Work on Nc1nc2c(ncn2[C@@H]2O[C@H](COP(=O)(O)OP(=O)(O)O)[C@@H](O)[C@H]2O)c(=O)[nH]1 [GDP] yielded a Kd of 20.5 µM.
With Nc1nc2c(ncn2[C@@H]2O[C@H](COP(=O)(O)OP(=O)(O)OP(=O)(O)O)[C@@H](O)[C@H]2O)c(=O)[nH]1 [GTP] the Kd was 1.38 µM.
